Literature values in paper PMC4918035, “A human and animal model-based approach to investigating the anti-inflammatory profile and potential of the 5-HT2B receptor antagonist AM1030” (Journal of Inflammation (London, England), 2016).

Target: T1, 5-HT2B receptor (Homo sapiens, UniProt P41595)
T1 construct: gene HTR2B
Test: receptor binding (Ki) and functional inhibition (IC50 […]); assay details not described

T1 sequence (P41595 whole entry): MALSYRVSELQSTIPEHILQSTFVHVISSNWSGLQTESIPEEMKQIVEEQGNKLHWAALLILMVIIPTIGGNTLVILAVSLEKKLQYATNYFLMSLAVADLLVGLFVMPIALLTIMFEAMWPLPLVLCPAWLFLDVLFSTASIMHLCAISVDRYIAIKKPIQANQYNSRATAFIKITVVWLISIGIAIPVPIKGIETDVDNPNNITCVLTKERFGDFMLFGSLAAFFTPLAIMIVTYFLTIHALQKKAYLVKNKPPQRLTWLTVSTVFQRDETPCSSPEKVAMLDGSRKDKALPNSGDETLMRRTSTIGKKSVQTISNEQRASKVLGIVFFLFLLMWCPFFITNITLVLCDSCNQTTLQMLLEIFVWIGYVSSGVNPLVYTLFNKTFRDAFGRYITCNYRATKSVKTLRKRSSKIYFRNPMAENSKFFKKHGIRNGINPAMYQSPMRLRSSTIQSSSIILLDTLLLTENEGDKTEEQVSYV

## AM1030
  Ki: 330 nM
